In article PMC10819888, “Benzimidazole-Based Derivatives as Apoptotic Antiproliferative Agents: Design, Synthesis, Docking, and Mechanistic Studies” (Molecules, 2024):

Experiments:
Assay in all cases: NCI-60 one-dose assay
Assay type in all cases: cell-based
SF-268 = settings: Homo sapiens, SF-268 (CNS cancer), read-out: Cell Inhibition Percent
K-562 = settings: Homo sapiens, K562, K-562 (Leukemia), read-out: Cell Inhibition Percent
HCT-116 = settings: Homo sapiens, HCT-116 (Colon Cancer), read-out: Cell Inhibition Percent
SN12C = settings: Homo sapiens, SN12C (Renal Cancer), read-out: Cell Inhibition Percent
NCI-H460 = settings: Homo sapiens, NCI-H460 (Non-Small Cell Lung Cancer), read-out: Cell Inhibition Percent
NCI-H322M = settings: Homo sapiens, NCI-H322M (Non-Small Cell Lung Cancer), read-out: Cell Inhibition Percent
MCF7 = settings: Homo sapiens, MCF7 (Breast Cancer), read-out: Cell Inhibition Percent
OVCAR-8 = settings: Homo sapiens, OVCAR-8 (ovarian cancer), read-out: Cell Inhibition Percent
MOLT-4 = settings: Homo sapiens, MOLT-4 (Leukemia), read-out: Cell Inhibition Percent
SNB-75 = settings: Homo sapiens, SNB-75 (CNS cancer), read-out: Cell Inhibition Percent
HS 578T = settings: Homo sapiens, HS 578T (Breast Cancer), read-out: Cell Inhibition Percent
ACHN = settings: Homo sapiens, ACHN (Renal Cancer), read-out: Cell Inhibition Percent
A498 = settings: Homo sapiens, A498 (Renal Cancer), read-out: Cell Inhibition Percent
T-47D = settings: Homo sapiens, T47D, T-47D (Breast Cancer), read-out: Cell Inhibition Percent
A549/ATCC = settings: Homo sapiens, A549/ATCC (Non-Small Cell Lung Cancer), read-out: Cell Inhibition Percent
NCI/ADR-RES = settings: Homo sapiens, NCI/ADR-RES (ovarian cancer), read-out: Cell Inhibition Percent
SF-539 = settings: Homo sapiens, SF-539 (CNS cancer), read-out: Cell Inhibition Percent
NCI-H522 = settings: Homo sapiens, NCI-H522 (Non-Small Cell Lung Cancer), read-out: Cell Inhibition Percent
OVCAR-5 = settings: Homo sapiens, OVCAR-5 (ovarian cancer), read-out: Cell Inhibition Percent
SK-MEL-28 = settings: Homo sapiens, SK-MEL-28 (Melanoma), read-out: Cell Inhibition Percent
SNB-19 = settings: Homo sapiens, SNB-19 (CNS cancer), read-out: Cell Inhibition Percent
UACC-62 = settings: Homo sapiens, UACC-62 (Melanoma), read-out: Cell Inhibition Percent
BT-549 = settings: Homo sapiens, BT-549 (Breast Cancer), read-out: Cell Inhibition Percent
MDA-MB 231 = settings: Homo sapiens, MDA-MB 231 (Breast Cancer), read-out: Cell Inhibition Percent
HOP-92 = settings: Homo sapiens, HOP-92 (Non-Small Cell Lung Cancer), read-out: Cell Inhibition Percent
SR = settings: Homo sapiens, SR (Leukemia), read-out: Cell Inhibition Percent
786-0 = settings: Homo sapiens, 786-0 (Renal Cancer), read-out: Cell Inhibition Percent
CCRF-CEM = settings: Homo sapiens, CCRF-CEM (Leukemia), read-out: Cell Inhibition Percent
RXF 393 = settings: Homo sapiens, RXF 393 (Renal Cancer), read-out: Cell Inhibition Percent

SMILES	inhibition at 10 µM (SF-268)	inhibition at 10 µM (K-562)	inhibition at 10 µM (HCT-116)	inhibition at 10 µM (SN12C)	inhibition at 10 µM (NCI-H460)	inhibition at 10 µM (NCI-H322M)	inhibition at 10 µM (MCF7)	inhibition at 10 µM (OVCAR-8)	inhibition at 10 µM (MOLT-4)	inhibition at 10 µM (SNB-75)	inhibition at 10 µM (HS 578T)	inhibition at 10 µM (ACHN)	inhibition at 10 µM (A498)	inhibition at 10 µM (T-47D)	inhibition at 10 µM (A549/ATCC)	inhibition at 10 µM (NCI/ADR-RES)	inhibition at 10 µM (SF-539)	inhibition at 10 µM (NCI-H522)	inhibition at 10 µM (OVCAR-5)	inhibition at 10 µM (SK-MEL-28)	other results
O=C(NN=Cc1ccccc1)c1ccc2[nH]c(-c3ccc(Cl)cc3)nc2c1 [Compound 4a, N′-Benzylidene-2-(4-chlorophenyl)-1H-benzimidazole-5-carbohydrazide]	0%	7.37%	0%	3.99%	0%	0%	23.5%	1.37%	12.9%	10.7%	7.92%	3.26%	22.1%	18.2%	0%	0%	9.57%	1%	0%	0%	inhibition at 10 µM (SNB-19): 0%; inhibition at 10 µM (UACC-62): 0%; inhibition at 10 µM (BT-549): 4.12%; inhibition at 10 µM (MDA-MB 231): 0%; inhibition at 10 µM (HOP-92): 0%; inhibition at 10 µM (SR): 18.1%; inhibition at 10 µM (786-0): 11.6%; inhibition at 10 µM (CCRF-CEM): 11.2%; inhibition at 10 µM (RXF 393): 15.5%
CN(C)c1ccc(C=NNC(=O)c2ccc3[nH]c(-c4ccc(Cl)cc4)nc3c2)cc1 [Compound 4b, N′-(4-(Dimethylamino)benzylidene)-2-(4-chlorophenyl)-1H-benzimidazole-5-carbohydrazide]	0.73%	5.96%	4.7%	1.47%	2.77%	0.24%	23.8%	5.81%	3.18%	0.61%	6.32%	1.36%	12.9%	14.1%	0%	0.43%	5.22%	3.02%	0%	0%	inhibition at 10 µM (SNB-19): 0%; inhibition at 10 µM (UACC-62): 1.06%; inhibition at 10 µM (BT-549): 0%; inhibition at 10 µM (MDA-MB 231): 15.6%; inhibition at 10 µM (HOP-92): 0%; inhibition at 10 µM (SR): 2.54%; inhibition at 10 µM (786-0): 0%; inhibition at 10 µM (CCRF-CEM): 6.5%; inhibition at 10 µM (RXF 393): 7.79%
O=C(NN=Cc1ccc(F)cc1)c1ccc2[nH]c(-c3ccc(Cl)cc3)nc2c1 [Compound 4d, N′-(4-Fluorobenzylidene)-2-(4-chlorophenyl)-1H-benzimidazole-5-carbohydrazide]	21.8%	61.2%	51.4%	58.8%	63.8%	22.4%	82.6%	48.7%	76.5%	2.77%	30%	64.3%	27.1%	40.6%	82.2%	23%	12%	3.87%	10.8%	28.1%	inhibition at 10 µM (SNB-19): 39.6%; inhibition at 10 µM (UACC-62): 11.8%; inhibition at 10 µM (BT-549): 0%; inhibition at 10 µM (MDA-MB 231): 36.1%; inhibition at 10 µM (HOP-92): 15.4%; inhibition at 10 µM (SR): 79.3%; inhibition at 10 µM (786-0): 87.8%; inhibition at 10 µM (CCRF-CEM): 78.6%; inhibition at 10 µM (RXF 393): 22.6%
O=C(NN=Cc1ccc(Cl)cc1Cl)c1ccc2[nH]c(-c3ccc(Cl)cc3)nc2c1 [Compound 4f, N′-(2,4-Dichlorobenzylidene)-2-(4-chlorophenyl)-1H-benzimidazole-5-carbohydrazide]	3.63%	53.7%	8.63%	1.23%	1.37%	0%	13.4%	17.1%	72.6%	12.4%	10.4%	9.01%	36.7%	12.3%	4.7%	0%	5.73%	7.79%	0%	0%	inhibition at 10 µM (SNB-19): 7.76%; inhibition at 10 µM (UACC-62): 0%; inhibition at 10 µM (BT-549): 0%; inhibition at 10 µM (MDA-MB 231): 11.4%; inhibition at 10 µM (HOP-92): 0%; inhibition at 10 µM (SR): 54.6%; inhibition at 10 µM (786-0): 0%; inhibition at 10 µM (CCRF-CEM): 48.1%; inhibition at 10 µM (RXF 393): 12.5%
COc1cc(/C=N/NC(=O)c2ccc3[nH]c(-c4ccc(Cl)cc4)nc3c2)cc(OC)c1OC [Compound 4h, N′-(3,4,5-Trimethoxybenzylidene)-2-(4-chlorophenyl)-1H-benzimidazole-5 carbohydrazide]	20.3%	67.3%	63.8%	31.5%	17.2%	12.4%	87.9%	39.5%	58.5%	13.4%	51.7%	32.3%	102%	84.1%	14.2%	0%	56.2%	21.7%	0%	53.5%	inhibition at 10 µM (SNB-19): 29%; inhibition at 10 µM (UACC-62): 71.3%; inhibition at 10 µM (BT-549): 29.3%; inhibition at 10 µM (MDA-MB 231): 0%; inhibition at 10 µM (HOP-92): 28.3%; inhibition at 10 µM (SR): 54.3%; inhibition at 10 µM (786-0): 48.8%; inhibition at 10 µM (CCRF-CEM): 63.4%; inhibition at 10 µM (RXF 393): 63.7%
O=C(N/N=C/c1ccc(O)cc1)c1ccc2[nH]c(-c3ccc(Cl)cc3)nc2c1 [Compound 4i, N′-(4-Hydroxybenzylidene)-2-(4-chlorophenyl)-1H-benzimidazole-5-carbohydrazide]	13.7%	0.25%	0%	0%	0%	0.47%	25.1%	0%	15.6%	0%	5.94%	4.33%	5.34%	24.2%	0%	0%	1.95%	9.85%	0%	0%	inhibition at 10 µM (SNB-19): 0%; inhibition at 10 µM (UACC-62): 5.2%; inhibition at 10 µM (BT-549): 0%; inhibition at 10 µM (MDA-MB 231): 2.75%; inhibition at 10 µM (HOP-92): 0%; inhibition at 10 µM (SR): 2.26%; inhibition at 10 µM (786-0): 0%; inhibition at 10 µM (CCRF-CEM): 13.6%; inhibition at 10 µM (RXF 393): 0%
